Measured values taken from publication PMC3783749 (Indian Journal of Pharmaceutical Sciences, 2013).
Converted amounts (≈) assume the structure as drawn.

Tests used:
[1] = tested on: Klebsiella pneumoniae ATCC 10031; test: MIC by broth microdilution method; assay type: cell-based; details: Gram-negative; 37°, 18 h
[2] = tested on: Candida tropicalis (ATCC 1369); test: Antifungal MIC by broth dilution; assay type: cell-based; details: read-out: MIC values, Ct

Row | SMILES | MIC values, Kp [1] | MIC [2]
1 | Cc1ccc(C)n1-c1ccc(C(=O)NNC=O)cc1 [Compound 5, 4-(2,5-dimethyl-1H-pyrrol-1-yl)-N’-formylbenzohydrazide] | 31.25 µg/mL (≈ 121 µM) | –
2 | Cc1ccc(C)n1-c1ccc(-c2nnc(-c3ccc(O)cc3)[nH]2)cc1 [Compound 4g, 4-(5-(4-(2,5-Dimethyl-1H-pyrrol-1-yl)phenyl)-4H-1,2,4-triazol-3-yl) phenol] | – | 31.2 µg/mL (≈ 94.6 µM)
3 | Cc1ccc(C)n1-c1ccc(-c2nnc(-c3ccccc3[N+](=O)[O-])[nH]2)cc1 [Compound 4f, 3-(4-(2,5-Dimethyl-1H-pyrrol-1-yl)phenyl)-5-(2-nitrophenyl)-4H-1,2,4-triazole] | – | 31.2 µg/mL (≈ 87 µM)
4 | Cc1ccc(C)n1-c1ccc(-c2nnc(-c3cccc([N+](=O)[O-])c3)[nH]2)cc1 [Compound 4e, 3-(4-(2,5-Dimethyl-1H-pyrrol-1-yl)phenyl)-5-(3-nitrophenyl)-4H-1,2,4-triazole] | – | 31.2 µg/mL (≈ 87 µM)
